Results taken from PMC8969151 (2022).

What was measured:
Experiment in all cases: in vitro transcription antitermination dose-response (E. coli RNAP)
[1] = tested on: pfl ZTP riboswitch with C3-SC1 leader (PRA1_Cap3_SC1_CbePfl_dRP1) (RNA, riboswitch) AUUCGGUGCUCUUCUCUUCGGCCUUCGGGCCAAAUUAGAUAUUAGUCAUAUGACUGACGGAAGUGGAGUUACCACAUGAAGUAUGACUAGGCAUAUUAUCUUAUAUGCCACAAAAAGCCGACCGUCUGGGCAAAAAAAGCCUGGAUUGCGUCGGCUUUUUUAUAUGGAAAAGAUCGUCGGACUGUAGAACUCUGAACGUGUAGAUCUCGGUGGUCGCCGUAUCAUU; details: 50 mM KCl, 10 mM MgCl2; 20 mM Tris-HCl pH 8.0, 37 °C, 500 μM NTPs; up to 1 mM ZMP; readthrough fold-change 7.1
[2] = tested on: pfl ZTP riboswitch (native, leader-less; PRA1_CbePfl_dRP1) (RNA, riboswitch) AUAUUAGAUAUUAGUCAUAUGACUGACGGAAGUGGAGUUACCACAUGAAGUAUGACUAGGCAUAUUAUCUUAUAUGCCACAAAAAGCCGACCGUCUGGGCAAAAAAAGCCUGGAUUGCGUCGGCUUUUUUAUAUGGAAAAGAUCGUCGGACUGUAGAACUCUGAACGUGUAGAUCUCGGUGGUCGCCGUAUCAUU; details: 50 mM KCl, 10 mM MgCl2; 20 mM Tris-HCl pH 8.0, 37 °C, 500 μM NTPs; up to 1 mM ZMP; readthrough fold-change 3.6
[3] = tested on: Cba ppGpp riboswitch (native, leader-less; PRA1_Cba2-2_dRP1) (RNA, riboswitch) AUAAUAAGAGAGUGUAUCUAGGGUUCCGGUCAAUAGAUGUCUGGUCCGAGCGAUACAGGAUUUCAAUCUACACUUUUAGGAAAAAAGCCUAAAGGACGAGUCUCUGCAAAGAGAUUUGUUCUUGGGCUUUAUUUUUUUAUCUUUAUUUAAGAUCGUCGGACUGUAGAACUCUGAACGUGUAGAUCUCGGUGGUCGCCGUAUCAUU; details: 50 mM KCl, 10 mM MgCl2; 20 mM Tris-HCl pH 8.0, 37 °C, 500 μM NTPs, NusA only stated for leader assay; readthrough fold-change 1.9
[4] = tested on: Cba ppGpp riboswitch with C3-SC1 leader (PRA1_Cap3_SC1_Cba2-2_dRP1) (RNA, riboswitch) AUUCGGUGCUCUUCUCUUCGGCCUUCGGGCCAAAAUAAGAGAGUGUAUCUAGGGUUCCGGUCAAUAGAUGUCUGGUCCGAGCGAUACAGGAUUUCAAUCUACACUUUUAGGAAAAAAGCCUAAAGGACGAGUCUCUGCAAAGAGAUUUGUUCUUGGGCUUUAUUUUUUUAUCUUUAUUUAAGAUCGUCGGACUGUAGAACUCUGAACGUGUAGAUCUCGGUGGUCGCCGUAUCAUU; details: 50 mM KCl, 10 mM MgCl2; 20 mM Tris-HCl pH 8.0, 37 °C, 500 μM NTPs, NusA; readthrough fold-change 6.0

| binding [1] | binding [2] | binding [3] | binding [4] | SMILES |
| --- | --- | --- | --- | --- |
| yes | yes | – | – | NC(=O)c1ncn([C@@H]2O[C@H](COP(=O)(O)O)[C@@H](O)[C@H]2O)c1N |
| – | – | yes | yes | Nc1nc2c(ncn2[C@@H]2O[C@H](COP(=O)(O)OP(=O)(O)O)[C@@H](OP(=O)(O)OP(=O)(O)O)[C@H]2O)c(=O)[nH]1 |
